From patent publication US20200215099A1, “NON-ANTICOAGULANT SULFATED OR SULFONATED POLYSACCHARIDES” (Baxalta Incorporated, priority 2012, published 2020)

Assays:
full-length TFPI = target: T1, full-length TFPI (Homo sapiens, UniProt P10646); test: Dilute prothrombin time assay with added TFPI (TFPI-dPT); format: biochemical; conditions: normal human plasma
T1 construct: 0.5 μg/mL full-length TFPI (aa 1-276, constitutively produced by SKHep1); made in house; host or cells: SKHep1
T1 sequence (P10646 29-304): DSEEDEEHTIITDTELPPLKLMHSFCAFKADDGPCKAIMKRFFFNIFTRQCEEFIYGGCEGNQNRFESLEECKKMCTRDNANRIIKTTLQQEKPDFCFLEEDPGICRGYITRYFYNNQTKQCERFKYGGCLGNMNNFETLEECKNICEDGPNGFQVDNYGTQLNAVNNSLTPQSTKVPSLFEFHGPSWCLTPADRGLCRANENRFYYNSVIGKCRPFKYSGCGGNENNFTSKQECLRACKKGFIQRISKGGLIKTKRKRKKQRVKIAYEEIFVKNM
Method: A dilute prothrombin time assay with added TFPI (TFPI-dPT) was used to evaluate the TFPI-inhibiting effect of the different NASPs. Pooled normal human plasma (George King Biomedical, Overland Park, Kans.) was pre-incubated with 0.5 μg/mL full-length TFPI (aa 1-276, constitutively produced by SKHep1) and the respective NASP (0-5 μg/mL) for 15 min at RT. TF reagent TriniClot PT Excel S (Trinity Biotech, Wicklow, Ireland), diluted in Hepes-buffered saline 1:200 with 0.5% BSA was added to the plasma samples on an ACL Pro Elite hemostasis analyzer (Instrumentation Laboratory, Bedford, Mass.). Clotting was initiated with 25 mM CaCl2). The volume ratio of plasma:TF:CaCl2 was 1:1:1.
For data analysis, TFPI-dPT is plotted against the log concentration. Half maximal effective concentrations (EC50) values are determined using a sigmoidal curve fit.

[1] = tested on: FVIII-inhibited guinea pigs; test: Ex-vivo whole blood TEG in FVIII-inhibited guinea pigs; set-up: species or system guinea pig
Method: Male Dunkin Hartley guinea pigs were intravenously injected with a goat anti-human FVIII inhibitor plasma at a dose of 42 BU/kg (1.9 mL/kg) 45 min before sampling. After 40 min, NASP was intravenously administered to the animals at 0.05, 0.15, 0.45 or 1.35 mg/kg (N=5 per group). 300 U/kg FEIBA (Baxter, BioScience, Austria) served as a positive control and saline as a vehicle control. Shortly after the injection, the Vena cava was punctured and blood was collected in the presence of citrate (ratio 1:9) for whole blood TEG analysis. Measurements were performed using a thromboelastography (TEG) hemostasis analyzer 5000 (Haemonetics Corp, USA) at 37° C. Every blood sample was prepared by pre-warming 204 of a 0.2 M CaCl2) solution in a TEG cuvette at 37° C. adding 340 μL of blood, mixing, and then immediately starting the TEG recording. The measurement proceeded for at least 120 min. The TEG parameters of clotting time (R-time), rapidity of clot strengthening (angle) and maximum clot firmness (MA) were recorded. The primary endpoint R-time was plotted and the median value of the different dosing groups compared with each other.

[2] = Pharmacokinetics after oral administration; format: in vivo, CD rats
Method: The preparations were either unfractionated (average MW of 24 kD) or fractionated by a filter method (average MW of 14 kD). The substances were prepared in a physiological saline solution without enhancer or with 0.8 wt % DOC or with 3 wt % chitosan+0.5 mg/mL bromelain. Each group dosed with NASP consisted of six rats. For each formulation, three additional rats served as vehicle controls. Blood samples were collected in the presence of citrate (ratio 1:9) before dosing and 15, 30 min, 1, 5, and 7 h after the dosing. Platelet-poor plasma was prepared by two centrifugation steps at 3000 rpm for 10 min.
The NASPs in the plasma samples were detected by a fluorescence assay that uses the dye HeparinRed that specifically binds to sulfated polysaccharides. Experiments were performed in a black half-area 96-well microtiter plate (Costar). For the S-6-CI standard curves (0.185 to 2.5 μg/mL), 10 μL of rat plasma was spiked with 5 μL of S-6-CI and mixed with 40 μL of human pooled plasma to minimize the matrix effect of individual animals. Then 5 μl HeparinRed dye was added and incubated in the dark at RT for 5 min. Plasma samples of the dosed animals were treated accordingly, however, the 5 μL S-6-CI were replaced by buffer. Fluorescent signals were detected with a Tecan Safire2™ microplate fluorescence reader (Ex/Em 580/620 nm) and the S-6-CI quantified based on the S-6-CI standard curve. […]

FVIII-inhibited plasma = test: Thrombin generation assay (CAT) in FVIII-inhibited plasma; format: biochemical, human
Method: The procoagulant activity of the sulfated polysaccharides was assessed by the Thrombin Generation Assay (TGA). The influence of each sulfated polysaccharide on thrombin generation was measured in duplicate via CAT in a Fluoroskan Ascent® reader (Thermo Labsystems, Helsinki, Finland; filters 390 nm excitation and 460 nm emission) following the slow cleavage of the fluorogenic substrate Z-Gly-GIy-Arg-AMC (Hemker H C. Pathophysiol Haemost Thromb (2003) 33(4):15). To each well of a 96 well microplate (Immulon 2HB, clear U-bottom; Thermo Electron) 80 μL of pre-warmed (37° C.) goat anti FVIII antibody treated human normal plasma pool was added. For triggering thrombin generation by tissue factor, 104 of PPP reagent containing a certain amount of recombinant human tissue factor (rTF) and phospholipid vesicles composed of phosphatidylserine, phosphatidylcholine and phosphatidylethanolamine (final concentration of 4 μM) (Thrombinoscope BV, Maastricht, The Netherlands) was added. For studying the procoagulant activity of sulfated polymers a final TF concentration of 1 pM was used to provide FVIII and TFPI sensitivity of the test system. Just prior to putting the plate into the pre-warmed (37° C.) reader, 10 µL of test or reference sample or calibrator compound was added. Thrombin generation was started by dispensing 204 of FluCa reagent (Thrombinoscope BV, Maastricht, The Netherlands) containing fluorogenic substrate and Hepes buffered CaCl2 (100 mM) into each well and fluorescence intensity was recorded at 37° C.
The parameters of the resulting thrombin generation curves were calculated using the Thrombinoscope™ software (Thrombinoscope BV, Maastricht, The Netherlands) and thrombin calibrator to correct for inner filter and substrate consumption effects (Hemker H C, Pathophysiol Haemost Thromb (2003) 33(4):15). With the thrombin calibrator as a reference, the molar concentration of thrombin in the test wells was calculated by the software. The thrombin amounts at the peak and peak times of each thrombin generation curve (peak thrombin, nM) were plotted against sulfated polysaccharide concentrations resulting in the procoagulant profile of these compounds. The thrombin generation assay results are illustrated in the figures appended hereto. From these plots half maximal effective concentrations (EC50) values are determined using a sigmoidal curve fit. The EC50 represents the concentration at which the half maximal thrombin peak is reached.

time of highest plasma level after dosing ([2]; oral 50 mg/kg): 60 min
plasma levels at all time points ([2]; oral 50 mg/kg with chitosan+bromelain): < 300 ng/mL
EC50 (FVIII-inhibited plasma; half maximal thrombin peak, 1 pM hTF, 4 μM PL): 0.07 µg/mL
Substance: sulfated 6-carboxy-icodextrin
reversal of the effect of rec. FL-TFPI (in words) (full-length TFPI): reverses the anticoagulant effect of exogenous full-length TFPI
median R-time (clotting time) ([1]; 0.15 and 0.45 mg/kg i.v., no clotting after 2 hours without treatment): 110 min
procoagulant effect, reduction in R-time (in words) ([1]; TEG five minutes after i.v. administration, NASP at 0.15 and 0.45 mg/kg): procoagulant effect superior to vehicle control
procoagulant activity (in words) (FVIII-inhibited plasma): good procoagulant activity in CAT assays at very low concentrations
procoagulant at (concentration) (FVIII-inhibited plasma; 37° C., 1 pM hTF, 4 μM PL): about 0.01 μg/mL
